Laboratory results as given in ChEMBL document CHEMBL1139145, “Inhibition of cancer cell adhesion by heterochiral Pro-containing RGD mimetics” (Bioorg Med Chem Lett, 2007).
Residues, ends and D or L forms follow the SMILES beside them.

target: Integrin alpha-V/beta-3 (Homo sapiens, UniProt P05106+P06756); assay: Inhibition of integrin alpha-v-beta-3 receptor-mediated human SK-MEL-24 cell adhesion to fibronectin by fluorimetry; type: protein-complex assay
Sequence (P05106 27-788 limits assumed): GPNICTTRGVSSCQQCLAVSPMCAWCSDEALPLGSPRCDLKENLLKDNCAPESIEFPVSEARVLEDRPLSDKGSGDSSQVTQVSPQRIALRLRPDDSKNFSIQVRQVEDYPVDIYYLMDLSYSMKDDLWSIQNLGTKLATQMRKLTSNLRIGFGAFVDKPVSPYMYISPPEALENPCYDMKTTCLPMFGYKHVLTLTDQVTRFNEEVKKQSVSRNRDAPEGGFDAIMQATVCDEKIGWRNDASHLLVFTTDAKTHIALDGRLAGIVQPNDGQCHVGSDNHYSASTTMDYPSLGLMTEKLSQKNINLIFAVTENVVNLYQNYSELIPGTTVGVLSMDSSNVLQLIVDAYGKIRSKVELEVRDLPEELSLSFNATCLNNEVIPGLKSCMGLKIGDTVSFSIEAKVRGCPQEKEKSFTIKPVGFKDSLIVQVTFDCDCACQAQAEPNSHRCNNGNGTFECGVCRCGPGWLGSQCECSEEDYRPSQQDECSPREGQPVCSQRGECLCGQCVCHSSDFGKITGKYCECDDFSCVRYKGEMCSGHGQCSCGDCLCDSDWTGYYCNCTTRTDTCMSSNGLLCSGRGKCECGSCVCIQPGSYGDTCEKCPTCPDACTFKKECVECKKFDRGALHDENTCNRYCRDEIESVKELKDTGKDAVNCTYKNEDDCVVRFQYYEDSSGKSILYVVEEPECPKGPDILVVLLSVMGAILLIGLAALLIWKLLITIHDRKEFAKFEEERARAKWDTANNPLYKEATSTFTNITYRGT
Sequence (P06756 31-889 limits assumed): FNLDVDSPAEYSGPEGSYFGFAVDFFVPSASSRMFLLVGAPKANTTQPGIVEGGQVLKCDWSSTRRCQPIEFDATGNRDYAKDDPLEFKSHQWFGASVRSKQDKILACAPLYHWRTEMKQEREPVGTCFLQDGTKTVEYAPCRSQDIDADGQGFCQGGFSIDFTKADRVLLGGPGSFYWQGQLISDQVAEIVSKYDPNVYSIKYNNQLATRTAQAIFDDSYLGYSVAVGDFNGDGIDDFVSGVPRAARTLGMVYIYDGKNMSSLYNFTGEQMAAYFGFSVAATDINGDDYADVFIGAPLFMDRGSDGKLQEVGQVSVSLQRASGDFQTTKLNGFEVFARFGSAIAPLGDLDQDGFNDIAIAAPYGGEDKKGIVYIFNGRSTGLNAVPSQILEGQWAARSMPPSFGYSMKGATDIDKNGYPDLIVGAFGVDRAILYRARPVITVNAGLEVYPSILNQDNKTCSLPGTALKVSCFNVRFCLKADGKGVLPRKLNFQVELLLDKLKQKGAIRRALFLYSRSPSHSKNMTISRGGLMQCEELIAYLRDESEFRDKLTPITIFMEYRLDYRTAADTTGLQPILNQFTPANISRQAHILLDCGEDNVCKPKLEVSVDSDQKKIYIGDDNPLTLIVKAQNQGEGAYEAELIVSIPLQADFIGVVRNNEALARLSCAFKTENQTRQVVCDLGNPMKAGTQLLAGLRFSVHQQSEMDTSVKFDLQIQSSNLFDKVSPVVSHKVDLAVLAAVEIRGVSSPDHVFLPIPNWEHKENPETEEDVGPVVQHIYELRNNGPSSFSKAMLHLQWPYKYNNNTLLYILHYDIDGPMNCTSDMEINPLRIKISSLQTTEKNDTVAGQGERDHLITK
Sequence (P06756 891-1048 limits assumed): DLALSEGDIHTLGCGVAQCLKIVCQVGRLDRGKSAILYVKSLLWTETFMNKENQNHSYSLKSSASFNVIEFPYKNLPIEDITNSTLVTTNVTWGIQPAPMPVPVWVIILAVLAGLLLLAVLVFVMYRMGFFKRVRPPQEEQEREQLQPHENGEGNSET

Question: Which IC50 does the source give for N=C(N)NCCC(=O)N1CCC[C@@H]1C(=O)N[C@@H](CCC(=O)O)C(=O)NCc1ccccc1 here?
Answer: The IC50 was 0.035 µM.

Question: With CCCNC(=O)[C@H](CC(=O)O)NC(=O)[C@H]1CCCN1C(=O)CCCN=C(N)N as the molecule, how does the IC50 read?
Answer: The IC50 was 20 µM.

Question: Which IC50 does the source give for Cc1ccc(S(=O)(=O)N[C@@H](CCCNC(=N)N)C(=O)N2CCC[C@H]2C(=O)N[C@@H](CC(=O)O)C(=O)NCc2ccccc2)cc1 here?
Answer: The IC50 was 100 µM.

Question: For N=C(N)NCCCC(=O)N1CCC[C@@H]1C(=O)N[C@@H](CC(=O)O)C(=O)NCc1ccccc1, which IC50 is on record?
Answer: Its IC50 is 0.026 µM.

Question: How did the IC50 turn out when NC(N)=NCCCCC(=O)N1CCC[C@@H]1C(=O)N[C@@H](CC(=O)O)C(=O)NCc1ccccc1 was run?
Answer: Its IC50 is 230 µM.

Question: With N=C(N)NCCCC(=O)N1CCC[C@@H]1C(=O)N[C@@H](CCC(=O)O)C(=O)NCc1ccccc1 as the molecule, how does the IC50 read?
Answer: Its IC50 is 2.6 µM.

Question: NC(N)=NCCCC(=O)N1CCC[C@@H]1C(=O)NCCC(=O)O was tested. Which IC50 did it give?
Answer: Its IC50 is 1.2 µM.

Question: For N=C(N)NCCC(=O)N1CCC[C@@H]1C(=O)N[C@@H](CC(=O)O)C(=O)NCc1ccccc1, which IC50 is on record?
Answer: The IC50 was greater than 100 µM.

Question: Cc1ccc(S(=O)(=O)N[C@@H](CCCN=C(N)N)C(=O)N2CCC[C@@H]2C(=O)N[C@@H](CC(=O)O)C(=O)NCc2ccccc2)cc1 was tested. Which IC50 did it give?
Answer: Its IC50 is 0.15 µM.

Question: How did the IC50 turn out when CC(=O)N[C@@H](CC(=O)O)C(=O)N[C@@H](CCCN=C(N)N)C(=O)NCC(=O)N[C@@H](CC(=O)O)C(=O)N[C@@H](CO)C(=O)O (Ac-DRGDS-OH) was run?
Answer: The IC50 was 0.02 µM.
